According to patent publication US20250129103A1, “METHODS FOR TREATMENT OF CANCER” (Frontier Medicines Corporation, priority 2022, published 2025):
Values after ≈ are worked out from the molar mass of the structure shown.

Key:
[1] = Determination of kinetic solubility (pH 7.4); assay type: physicochemical; conditions: phosphate buffer, pH 7.4, aqueous buffer, kinetic from dmso stock, 50 mM phosphate buffer pH 7.4, read-out: Ksol, pH 7.4
Summary of the method: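 Sample mixed with 50 mM phosphate buffer, pH 7.4, vortexed, then shaken 2 h at room temperature and centrifuged. Filtrate analysed by HPLC-UV and LC-MS/MS, with solubility read from peak areas against a standard calibration curve.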

[2] = biological target: KRAS G12C (GMPPNP-loaded) and cRAF (Ras-binding domain) interaction (Homo sapiens (Human), UniProt P01116, C118S/C51S/C80L/G12C); assay: Inhibition of KRAS G12C and cRAF binding (AlphaScreen); conditions: KRAS G12C loaded with GMPPNP, cRaf RBD, 2 hours preincubation; read-out: Raf-1 RBD K-Ras IC50
KRAS G12C (GMPPNP-loaded) and cRAF (Ras-binding domain) interaction, sequence (P01116 other isoform, or with tags, fused parts or gaps G12C/C51S/C80L/C118S): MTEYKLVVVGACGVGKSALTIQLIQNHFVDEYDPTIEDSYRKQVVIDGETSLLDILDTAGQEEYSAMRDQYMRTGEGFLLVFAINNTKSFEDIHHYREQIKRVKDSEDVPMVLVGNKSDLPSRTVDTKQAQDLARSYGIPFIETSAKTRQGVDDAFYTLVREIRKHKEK
Summary of the method: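 GMPPNP-loaded KRAS G12C in 25 mM Hepes pH 7.4, 150 mM NaCl, 5 mM MgCl2, 0.01% Triton X-100, 10 μM GMPPNP, 2% DMSO, preincubated with compound 2 h at room temperature. cRAF RBD plus AlphaScreen beads then added for 60-90 min; signal read at 570 nm.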

[3] = Determination of logD (1-octanol / phosphate buffer pH 7.4); assay type: physicochemical; conditions: 1-octanol/phosphate buffer, pH 7.4, pH 7.4, 1-octanol/phosphate buffer; read-out: Log D, pH 7.4
Summary of the method: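 Shake-flask partition between 1-octanol and 100 mM phosphate buffer pH 7.4, each phase presaturated with the other overnight. Tubes shaken 1 h at 800 rpm, room temperature, then centrifuged. Both phases quantified by LCMS and logD calculated from the ratio.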

solubility kinetic at 2 h [1] | IC50 [2] | logD [3] | SMILES
88 µg/mL (≈ 117 µM) | 100 to 500 nM | 3.59 | C[C@@H]1CN(C/C=C/C(=O)N2CCN(c3nc(OC[C@@]45CCCN4C[C@H](F)C5)nc4c(F)c(-c5cccc6cccc(F)c56)ncc34)C[C@@H]2CC#N)C[C@@H](C)O1 [Compound 236]
92.6 µg/mL (≈ 120 µM) | 10 to 100 nM | 2.53 | C[C@@H]1CN(C/C=C/C(=O)N2CCN(c3nc(OC[C@@]45CCCN4C[C@H](F)C5)nc4c(F)c(-c5cccc6ccc(F)c(F)c56)ncc34)C[C@@H]2CC#N)C[C@H](C)O1 [Compound 239]
49.5 µg/mL (≈ 64 µM) | 10 to 100 nM | 3.42 | C[C@H]1CN(C/C=C/C(=O)N2CCN(c3nc(OC[C@@]45CCCN4C[C@H](F)C5)nc4c(F)c(-c5cccc6ccc(F)c(F)c56)ncc34)C[C@@H]2CC#N)C[C@H](C)O1 [Compound 240]
60.1 µg/mL (≈ 77.7 µM) | 10 to 100 nM | 2.94 | C[C@@H]1CN(C/C=C/C(=O)N2CCN(c3nc(OC[C@@]45CCCN4C[C@H](F)C5)nc4c(F)c(-c5cccc6ccc(F)c(F)c56)ncc34)C[C@@H]2CC#N)C[C@@H](C)O1 [Compound 241]
74.4 µg/mL (≈ 98.8 µM) | 10 to 100 nM | 2.91 | N#CC[C@H]1CN(c2nc(OC[C@@]34CCCN3C[C@H](F)C4)nc3c(F)c(-c4cccc5cccc(F)c45)ncc23)CCN1C(=O)/C=C/CN1CC2CCC(C1)O2 [Compound 245]
69.5 µg/mL (≈ 93.9 µM) | 10 to 100 nM | 2.96 | Cc1c(F)ccc2cccc(-c3ncc4c(N5CCN(C(=O)/C=C/CN6CCOCC6)[C@@H](CC#N)C5)nc(OC[C@@]56CCCN5C[C@H](F)C6)nc4c3F)c12 [Compound 246]
71.1 µg/mL (≈ 92.2 µM) | < 10 nM | 3.38 | N#CC[C@H]1CN(c2nc(OC[C@@]34CCCN3C[C@H](F)C4)nc3c(F)c(-c4cccc5ccc(F)c(F)c45)ncc23)CCN1C(=O)/C=C/CN1CC2CCC(C1)O2 [Compound 249]
4.99 µg/mL (≈ 6.8 µM) | < 10 nM | 3.79 | Cc1nccc(/C=C/C(=O)N2CCN(c3nc(OC[C@@]45CCCN4C[C@H](F)C5)nc4c(F)c(-c5cccc6ccc(F)c(C)c56)ncc34)C[C@@H]2CC#N)n1 [Compound 254]
169 µg/mL (≈ 219 µM) | < 10 nM | 2.81 | N#CC[C@H]1CN(c2nc(OC[C@@]34CCCN3C[C@H](F)C4)nc3c(F)c(-c4cccc5cccc(Cl)c45)ncc23)CCN1C(=O)/C=C/CN1C[C@H]2CC[C@@H]1CO2 [Compound 258]
147 µg/mL (≈ 191 µM) | < 10 nM | 2.92 | N#CC[C@H]1CN(c2nc(OC[C@@]34CCCN3C[C@H](F)C4)nc3c(F)c(-c4cccc5cccc(Cl)c45)ncc23)CCN1C(=O)/C=C/CN1C[C@@H]2CC[C@H]1CO2 [Compound 259]
56.7 µg/mL (≈ 74.7 µM) | 10 to 100 nM | 3.14 | N#CC[C@H]1CN(c2nc(OC[C@@]34CCCN3C[C@H](F)C4)nc3c(F)c(-c4cccc(Cl)c4C4CC4)ncc23)CCN1C(=O)/C=C/CN1CC2CCC(C1)O2 [Compound 261]
76.2 µg/mL (≈ 101 µM) | 10 to 100 nM | 3.14 | N#CC[C@H]1CN(c2nc(OC[C@@]34CCCN3C[C@H](F)C4)nc3c(F)c(-c4cccc5cccc(Cl)c45)ncc23)CCN1C(=O)/C=C/CN1CCOC2CC21 (stereo partly drawn) [Compound 274]
108 µg/mL (≈ 145 µM) | < 10 nM | 3 | N#CC[C@H]1CN(c2nc(OC[C@@]34CCCN3C[C@H](F)C4)nc3c(F)c(-c4cccc(Cl)c4C4CC4)ncc23)CCN1C(=O)/C=C/CN1C[C@H]2C[C@@H]1CO2 [Compound 276]
70.4 µg/mL (≈ 90.6 µM) | < 10 nM | 3.54 | C#Cc1c(F)ccc2cccc(-c3ncc4c(N5CCN(C(=O)/C=C/CN6CC7CCC(C6)O7)[C@@H](CC#N)C5)nc(OC[C@@]56CCCN5C[C@H](F)C6)nc4c3F)c12 [Compound 285]
114 µg/mL (≈ 152 µM) | < 10 nM | 3.23 | CO[C@H]1CCN(C/C=C/C(=O)N2CCN(c3nc(OC[C@@]45CCCN4C[C@H](F)C5)nc4c(F)c(-c5cccc(Cl)c5C5CC5)ncc34)C[C@@H]2CC#N)C1 [Compound 287]
96.7 µg/mL (≈ 125 µM) | < 10 nM | 2.54 | N#CC[C@H]1CN(c2nc(OC[C@@]34CCCN3C[C@H](F)C4)nc3c(F)c(-c4cccc(Cl)c4C(F)(F)F)ncc23)CCN1C(=O)/C=C/CN1C[C@@H]2C[C@H]1CO2 [Compound 293]
127 µg/mL (≈ 165 µM) | < 10 nM | 2.59 | N#CC[C@H]1CN(c2nc(OC[C@@]34CCCN3C[C@H](F)C4)nc3c(F)c(-c4cccc(Cl)c4C(F)(F)F)ncc23)CCN1C(=O)/C=C/CN1C[C@H]2C[C@@H]1CO2 [Compound 294]

SMILES | solubility kinetic at 2 h [1] | IC50 [2] | logD [3]
N#CC[C@H]1CN(c2nc(OC[C@@]34CCCN3C[C@H](F)C4)nc3c(F)c(-c4cccc5cccc(F)c45)ncc23)CCN1C(=O)/C=C/CN1CC2CC(C1)O2 [Compound 237] | 67 µg/mL (≈ 90.7 µM) | < 10 nM | 2.87
CCc1c(F)ccc2cccc(-c3ncc4c(N5CCN(C(=O)/C=C/CN6CC7CC(C6)O7)[C@@H](CC#N)C5)nc(OC[C@@]56CCCN5C[C@H](F)C6)nc4c3F)c12 [Compound 242] | 93.3 µg/mL (≈ 122 µM) | < 10 nM | 3.38
Cc1c(F)ccc2cccc(-c3ncc4c(N5CCN(C(=O)/C=C/CN6CC7CC(C6)O7)[C@@H](CC#N)C5)nc(OC[C@@]56CCCN5C[C@H](F)C6)nc4c3F)c12 [Compound 247] | 88.6 µg/mL (≈ 118 µM) | < 10 nM | 3.02
C#Cc1c(F)ccc2cccc(-c3ncc4c(N5CCN(C(=O)/C=C/CN6CC7CC(C6)O7)[C@@H](CC#N)C5)nc(OC[C@@]56CCCN5C[C@H](F)C6)nc4c3F)c12 [Compound 256] | 101 µg/mL (≈ 133 µM) | < 10 nM | 2.71
Cc1c(Cl)cccc1-c1ncc2c(N3CCN(C(=O)/C=C/CN4[C@@H]5CC[C@H]4COC5)[C@@H](CC#N)C3)nc(OC[C@@]34CCCN3C[C@H](F)C4)nc2c1F [Compound 273] | 124 µg/mL (≈ 169 µM) | < 10 nM | 3.1
N#CC[C@H]1CN(c2nc(OC[C@@]34CCCN3C[C@H](F)C4)nc3c(F)c(-c4cccc(Cl)c4C(F)F)ncc23)CCN1C(=O)/C=C/CN1[C@@H]2CC[C@H]1COC2 [Compound 275] | 106 µg/mL (≈ 137 µM) | < 10 nM | 2.73
N#CC[C@H]1CN(c2nc(OC[C@@]34CCCN3C[C@H](F)C4)nc3c(F)c(-c4cccc(Cl)c4C4CC4)ncc23)CCN1C(=O)/C=C/CN1C2COCC1C2 [Compound 278] | 66.6 µg/mL (≈ 89.4 µM) | < 10 nM | 3.3
N#CC[C@H]1CN(c2nc(OC[C@@]34CCCN3C[C@H](F)C4)nc3c(F)c(-c4ccccc4C(F)F)ncc23)CCN1C(=O)/C=C/CN1[C@@H]2CC[C@H]1COC2 [Compound 289] | 140 µg/mL (≈ 190 µM) | 10 to 100 nM | 2.16
N#CC[C@H]1CN(c2nc(OC[C@@]34CCCN3C[C@H](F)C4)nc3c(F)c(-c4cccc(F)c4C(F)(F)F)ncc23)CCN1C(=O)/C=C/CN1[C@@H]2CC[C@H]1COC2 [Compound 292] | 112 µg/mL (≈ 145 µM) | < 10 nM | 2.54
N#CC[C@H]1CN(c2nc(OC[C@@]34CCCN3C[C@H](F)C4)nc3c(F)c(-c4cccc(Cl)c4C(F)(F)F)ncc23)CCN1C(=O)/C=C/CN1CC2CC(C1)O2 [Compound 295] | 102 µg/mL (≈ 132 µM) | < 10 nM | 2.75
